Earlier results on five compounds are cited in patent US20100135908A1, “Delivery devices for modulating inflammation” (Searete LLC, a limited liability corporation of the state …, priority 2008, published 2010).

Data set [1] concerns Src family kinases (Src, Lck, Yes, Fyn). The note with it: at nanomolar concentrations.
The subject of another data set is proteasome. As to conditions: cultured breast cancer cells; disulfiram bound to copper.
For data set [2] the following is noted: mice.
For data set [3] the following is noted: single agent, 400 mg infused over one hour.

For `Cc1nc(Nc2ncc(C(=O)Nc3c(C)cccc3Cl)s2)cc(N2CCN(CCO)CC2)n1.O` [dasatinib, N-(2-chloro-6-methylphenyl)-2-[[6-[4-(2-hydroxyethyl)-1-piperazinyl]-2-methyl-4-pyrimidinyl]amino]-5-thiazolecarboxamide, monohydrate], the “inhibition of Src family kinases (Src, Lck, Yes, Fyn)” value in data set [1] is listed as “inhibits”.

As to `CCN(CC)C(=S)SSC(=S)N(CC)CC` [disulfiram, 1-(diethylthiocarbamoyldisulfanyl)-N,N-diethyl-methanethioamide], in the data set on proteasome, the proteasomal activity entry is “inhibits proteasomal activity”.

Turning to `Cl.Cl.Nc1ccccc1Oc1ccc2c(N)nsc2c1` [Example M62812, 3-amino-6-(2-aminophenoxy)-1,2-benzisothiazole dihydrochloride], the “prevention of lethal septic shock” value in data set [2] was “prevents lethal septic shock”. As to `CCN(CC)CCCC(C)Nc1ccnc2cc(Cl)ccc12` (centres unmarked) [chloroquine], the “inhibition of CpG-induced Src family kinase activation or its dependent cellular responses” value in the data set with Src family kinase was “does not inhibit”. `CCN(CC)CCCC(C)Nc1ccnc2cc(Cl)ccc12.O=P(O)(O)O.O=P(O)(O)O` (centres unmarked) [chloroquine phosphate, 7-chloro-4-[[4-(diethylamino)-1-methylbutyl]amino]quinoline phosphate (1:2)]: the “complications of intravenous infusion” value in data set [3] is “without complication”.
